Test results as given in patent publication US11975003B2, “Methods and compositions for treatment of Zika virus infection” (priority 2016, dated 2024).
≈ marks a conversion by molar mass, not a printed value. Like-named read-outs stand apart in the source and are kept apart here.

Key:
[1] = test system: Zika virus Malaysia P 6-740; experiment: CPE reduction assay (neutral red uptake); format: cell-based; details: Zika virus
Procedure: (§1) The compounds were administered at a range of concentrations up to 100 μg/ml. Compounds were prepared in MEM just prior to testing. Inhibition of virus replication was determined by microscopic examination of the infected cells for cytopathic effect, increase of neutral red (NR) dye uptake (colorimetric determination), and virus yield reduction. Uninfected cells treated with a compound were assayed as above for cytotoxicity control. The EC50, EC90 and SI (selectivity index) values were determined in Vero76, Huh7 and RD cells as analyzed by the neutral red uptake dye assay and virus yield reduction assays. The results are presented from 3 or more independent experiments (standard deviations not shown. Three Zika virus strains were used in this in vitro study, Malaysia strain P 6-740, Uganda strain MR-766 and Puerto Rico strain PRVABC-59. Cells were maintained under standard conditions.

[2] = test system: Zika virus Puerto Rico PRVABC59; experiment: CPE reduction assay (neutral red uptake); format: cell-based; details: Zika virus
Procedure: as §1

Zika virus Uganda MR 766 [3] = experiment: CPE reduction assay (neutral red uptake); format: cell-based; details: Zika virus
Procedure: as §1

[4] = test system: Zika virus Malaysia P 6-740; experiment: Virus yield reduction (VYR) assay; format: cell-based; details: Zika virus
Procedure: as §1

[5] = test system: Zika virus Puerto Rico PRVABC59; experiment: Virus yield reduction (VYR) assay; format: cell-based; details: Zika virus
Procedure: as §1

Zika virus Uganda MR 766 [6] = experiment: Virus yield reduction (VYR) assay; format: cell-based; details: Zika virus
Procedure: as §1

[7] = test system: Zika virus (Malaysia, strain P 6-740); experiment: Murine Zika virus model, treatment begun 4 h before infection (Example 3); details: for percentage weight change vs placebo: FIG. 6; for relative virus levels vs placebo: FIG. 7; for survival vs placebo: none surviving past day 20
Procedure: The agents used in this experiment were compound A (the compound of formula I, where A is NH2 and B is H as the HCL salt) and ribavirin. Compound A was administered IM at 150 mg/kg/day and 300 mg/kg/day, each in a volume of 0.05 ml saline and ribavirin was administered IP at 75 mg/kg/day and 50 mg/kg/day, each in a volume of 0.1 ml saline. IM or IP administration of the daily dose was accomplished in two IM/IP injections of one-half the daily dose each. Mice were administered the first dose of Compound A and ribavirin 4 hours prior to infection with Zika virus and continued the treatment for 8 days post-infection.
In this experiment, Zika virus (Malaysia, strain P 6-740) was administered at a challenge dose of 100 CCID50 (10^3 pfu) per mouse via subcutaneous injection in a 0.1 ml volume.
Mice were monitored for survival 28 days post-virus challenge. Weight change for individual mice were taken on day 0 and every other day through the end of the experiments. Mice were observed daily for signs of disease including conjunctivitis, hunching, and limb weakness or paralysis.
For Zika virus infection and antiviral treatment studies, mice were randomly assigned to groups of 10 animals each. A 10^-3 dilution (10^4.0 pfu/mL) of the virus was prepared in MEM. Mice were challenged s.c. with 0.1 mL of the diluted virus (˜10^3.0 pfu/animal). All compound dosages were based on an average mouse weight of 22 g. Compounds were prepared in sterile saline less than 18 hours prior to initial administration in mice and stored at 4° C. for the duration of the study. Compound A was administered i.m., twice daily (bid) at 300 or 150 mg/kg/d. Ribavirin was given i.p., bid at 75 or 50 mg/kg/d. Treatments began 4 hours prior to virus challenge and continued for 8 days. The identity of the treatment groups was blinded to the technician administering treatments. Mortality was observed twice daily for 28 days, and the weight of each mouse was recorded on day 0 and then every other day from 1-19 days post-virus infection (dpi). Mice were humanely euthanized if they could no longer right themselves or were unresponsive to stimuli.
Fifty to 100 mg of freshly isolated tissue was ground with a pestle in 1 mL TRI Reagent (Sigma-Aldrich, St. Louis, MO) and total RNA was extracted. For the extraction of viral RNA from liquid samples, QlAamp Viral RNA Mini Spin kit was used according to the manufactures instructions (Qiagen, Valencia, CA). Extracted RNA was eluted with nuclease-free water and was amplified by a quantitative real-time RT-PCR using the Logix Smart Zika Test developed by Co-Diagnostics, Inc. (Bountiful, UT). Five μL of the master mix containing a set of primers and Rapid Probe, labeled with a FAM fluorophore and DABCYL quencher, was mixed with 2-5 μL of RNA and an appropriate volume of water for a final reaction volume of 10 μl. RNA was first reverse transcribed for 10 minutes at 55° C., followed by strand separation by heating to 95° C. for 20 seconds. The PCR reaction consisted of 40 cycles at 95° C. for 1 second and 55° C. for 20 seconds. A standard curve was generated with a synthetic RNA spanning the region of amplification and it was used to calculate the number of genome equivalents of the unknown samples.

Zika virus = experiment: Virus yield reduction curves (FIGS. 1E-1G), strain not stated; format: cell-based
Procedure: as §1

[8] = Phase 1 study of intramuscular injection in healthy human subjects (Example 8); format: in vivo; details: Compound A 4 mg/kg IM with lidocaine
Procedure: A phase 1 double-blind, placebo-controlled, dose-ranging study was conducted to evaluate the safety, tolerability, and pharmacokinetics of Compound A administered by intramuscular injection (IM) in healthy human subjects. The study was conducted in two parts. In part 1, subjects received a single dose of Compound A at doses from 0.3 mg/kg to 10 mg/kg via IM administration. Additionally, the effect of lidocaine administration (co-administered with Compound A at a dose of 4 mg/kg) on alleviation of pain associated with injection was also evaluated. In part 2, subjects received Compound A for 7 days (q.d.) at doses of 2.5 mg/kg/day, 5 mg/kg/day or 10 mg/kg/day via IM administration. 50 subjects received single doses of Compound A in part 1 (12 subjects received placebo) and 23 subjects received multiple doses of Compound A in part 2 (6 subjects received placebo). All planned cohorts were completed.
Eligible subjects were adults of either sex ages 18 to 50. […]
The plasma concentration time profile of Compound A was determined for each subject in part 2 (results expressed as ng/ml Compound A). Blood samples were taken on Day 1 prior to administration of the first dose and at 1, 2, 3, 4, 6, 8, 10, 12, 16 and 24 hours after administration of the first dose of Compound A and on Day 7 prior to administration of the last dose of Compound A and at 1, 2, 3, 4, 6, 8, 10, 12, 16, 24, 36, 48, 72 and 96 hours after administration of the last dose of Compound A. Plasma samples were obtained from the blood samples and the concentration of Compound A determined.

**Q.** Which results are given for NC(=O)c1ncn([C@@H]2O[C@H](CO)[C@@H](O)[C@H]2O)n1 [Ribavirin, reference compound]?
**A.** EC50 ([1]; Huh-7 cells): 7.2 ± 2.8 mg/L (≈ 29.5 µM); EC50 ([1]; Vero 76, Vero76 cells): 143 ± 85 mg/L (≈ 586 µM); EC50 ([2]; Vero 76, read-out: CPE red. assay EC50): 23 ± 16.8 mg/L (≈ 94.2 µM); EC50 ([2]; Puerto Rico PRVABC59, Huh-7 cells, read-out: CPE red. assay EC50): 3.8 ± 1.6 mg/L (≈ 15.6 µM); EC50 ([2]; Puerto Rico PRVABC59, RD cells, read-out: CPE red. assay EC50): 10 ± 6 mg/L (≈ 40.9 µM); EC50 (Zika virus Uganda MR 766 [3]; Huh-7 cells): 8.9 ± 7.9 mg/L (≈ 36.4 µM); EC50 (Zika virus Uganda MR 766 [3]; RD cells): 9.3 ± 5.2 mg/L (≈ 38.1 µM); EC50 (Zika virus Uganda MR 766 [3]; Vero 76, Vero76 cells): 85 ± 77.9 mg/L (≈ 348 µM); EC90 ([4]; Huh-7 cells): 13.1 ± 0.5 mg/L (≈ 53.6 µM); EC90 ([4]; Vero 76, Vero76 cells): 195 ± 63.6 mg/L (≈ 799 µM); EC90 ([5]; Vero 76, read-out: VYR assay EC90): ≥ 281 mg/L; EC90 ([5]; Puerto Rico PRVABC59, Huh-7 cells, read-out: VYR assay EC90): 10.4 ± 0.8 mg/L (≈ 42.6 µM); EC90 ([5]; Puerto Rico PRVABC59, RD cells, read-out: VYR assay EC90): 46.3 ± 8.6 mg/L (≈ 190 µM); EC90 (Zika virus Uganda MR 766 [6]; Huh-7 cells): 9.52 ± 2.1 mg/L (≈ 39 µM); EC90 (Zika virus Uganda MR 766 [6]; RD cells): 13.2 ± 1.7 mg/L (≈ 54.1 µM); EC90 (Zika virus Uganda MR 766 [6]; Vero 76, Vero76 cells): 198 ± 172 mg/L (≈ 811 µM); percentage weight change vs placebo ([7]; 50 mg/kg/day IP (group 7)): no significant improvement; relative virus levels vs placebo ([7]; 50 mg/kg/day IP (group 7)): failed to decrease relative virus levels; survival vs placebo ([7]; 50 mg/kg/day IP bid x 8 days, begun -4 h (group 7)): did not increase the survival; percentage weight change vs placebo ([7]; 75 mg/kg/day IP (group 5)): no significant improvement; relative virus levels vs placebo ([7]; 75 mg/kg/day IP (group 5)): failed to decrease relative virus levels; survival vs placebo ([7]; 75 mg/kg/day IP bid x 8 days, begun -4 h (group 5)): did not increase the survival; weight change in sham-infected mice at day 19 ([7]; 75 mg/kg/day IP, sham infection): no significant weight change; antiviral activity in virus yield reduction (Zika virus; Huh-7 cells, FIG. 1F): confirmed the antiviral activity; antiviral activity in virus yield reduction (Zika virus; RD cells, FIG. 1G): confirmed the antiviral activity; activity in VYR studies (Zika virus; Vero76 cells, FIG. 1E): not active

**Q.** For CCN(CC)CC(=O)Nc1c(C)cccc1C [lidocaine, reference compound], which “injection site pain on co-administration with Compound A” value [8] is on record?
**A.** The value was “ameliorate injection site pain”.
